From patent publication US20260125359A1, “HETEROARYL COMPOUNDS AS MULTI-TARGET PROTEIN KINASE INHIBITORS” (FUJIAN HAIXI PHARMACEUTICALS CO., LTD., priority 2023, published 2026) come the findings set out here.

This assay concerns M-NFS-60 cells. Nature of the assay: M-NFS-60 cell in vitro assay (CCK, 48 h, M-CSF factor medium). It counts as cell-based. The note with it: M-NFS-60 cells; read-out: M-NFS-60cellassay IC50. The method, boiled down: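 IC50 values were fitted from CCK absorbance (450 nm, 2 h development) after 48 h compound treatment. Cells: M-NFS-60, seeded 2000/well and rested 4 h, grown in medium carrying 25 ng/ml M-CSF factor plus 10% serum; compounds serially diluted in DMSO.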
On to `Cn1cc(-c2cncc(N[C@H]3CCc4c(NC(c5cccc(Cl)c5)C(F)(F)F)cccc43)n2)cn1` (stereo partly drawn) [Compound 61, (1S)—N^4-(1-(3-chlorophenyl)-2,2,2-trifluoroethyl)-N1-(6-(1-methyl-1H-pyrazol-4-yl)pyrazin-2-yl)-2,3-dihydro-1H-indene-1,4-diamine], for which the IC50 was over 0.5 µM. Then `Cn1cc(-c2cncc(N[C@H]3CCc4c(C(=O)OC5CCCCC5)cccc43)n2)cn1` [Compound 62, cyclohexyl(S)-1-((6-(1-methyl-1H-pyrazol-4-yl)pyrazin-2-yl)amino)-2,3-dihydro-1H-indene-4-carboxylate], with over 0.5 µM; and `Cn1cc(-c2cncc(N[C@H]3CCc4c(NC5(c6ccccc6)COC5)cccc43)c2)cn1` [Compound 63, (S)—N^1-(5-(1-methyl-1H-pyrazol-4-yl)pyridin-3-yl)-N^4-(3-phenyloxetan-3-yl)-2,3-dihydro-1H-indene-1,4-diamine], with over 0.5 µM; and `Cn1cc(-c2cncc(N[C@H]3CCc4c(NC(=O)N5CCC(C)(C)C5=O)cccc43)n2)cn1` [Compound 64, (S)-3,3-dimethyl-N-(1-((6-(1-methyl-1H-pyrazol-4-yl)pyrazin-2-yl)amino)-2,3-dihydro-1H-inden-4-yl)-2-oxopyrrolidine-1-carboxamide], with 0.2 to 0.5 µM.

In the case of `Cn1cc(-c2cncc(N[C@H]3CCc4c(NC(=O)NC5CCCCC5)cccc43)n2)cn1` [Compound 65a], the IC50 is under 0.05 µM. As for `Cn1cc(-c2cncc(N[C@H]3CCc4c(NC(=O)NC5CCC(F)(F)CC5)cccc43)n2)cn1` [Compound 65b], the figure is 0.05 to 0.2 µM; as for `Cn1cc(-c2cncc(N[C@H]3CCc4c(NC(=O)OC5CCCCC5)cccc43)n2)cn1` [Compound 65c], under 0.05 µM. As for `Cn1cc(-c2cncc(N[C@H]3CCc4c(NC(=O)NCC5CC5)cccc43)n2)cn1` [Compound 65d], the figure is over 0.5 µM; as for `Cn1cc(-c2cncc(N[C@H]3CCc4c(NC(=O)Nc5ccccc5F)cccc43)n2)cn1` [Compound 65e], under 0.05 µM.

For the compound `Cn1cc(-c2cnc(N)c(O[C@H]3CCc4c(Nc5cc(C(C)(C)C)on5)cccc43)c2)cn1` [Compound 67, (S)—N-(1-((2-amino-5-(1-methyl-1H-pyrazol-4-yl)pyridin-3-yl)oxy)-2,3-dihydro-1H-inden-4-yl)-5-(tert-butyl) isoxazol-3-amine], the IC50 was under 0.05 µM. Then `Cn1cc(-c2cnc(N)c(O[C@H]3CCc4c(Nc5cc(C(C)(C)C)on5)cccc43)c2)cn1` [Compound 68, (S)—N-(1-((2-amino-5-(1-methyl-1H-pyrazol-4-yl)pyridin-3-yl)oxy)-2,3-dihydro-1H-inden-4-yl)-5-(tert-butyl) isoxazol-3-amine], with 0.2 to 0.5 µM; and `COc1cc(C(=O)Nc2cccc3c2C(=O)CC3Nc2cncc(-c3cnn(C)c3)c2)ccc1F` (stereo not shown) [Compound 69, 4-fluoro-3-methoxy-N-(1-((5-(1-methyl-1H-pyrazol-4-yl)pyridin-3-yl)amino)-3-oxo-2,3-dihydro-1H-inden-4-yl)benzamide], with over 0.5 µM; and `Cn1cc(-c2cncc(NC3CC(=O)c4c(NC(=O)c5ccc(C(F)(F)F)cc5)cccc43)c2)cn1` (stereo not shown) [Compound 70, N-(1-((5-(1-methyl-1H-pyrazol-4-yl)pyridin-3-yl)amino)-3-oxo-2,3-dihydro-1H-inden-4-yl)-4-(trifluoromethyl)benzamide], with over 0.5 µM. Regarding `Cn1cc(-c2cncc(NC3CC(F)c4c(NC(=O)c5ccc(C(F)(F)F)cc5)cccc43)c2)cn1` (stereo not shown) [Compound 71, N-(3-fluoro-1-((5-(1-methyl-1H-pyrazol-4-yl)pyridin-3-yl)amino)-2,3-dihydro-1H-inden-4-yl)-4-(trifluoromethyl)benzamide], the IC50 lay in the range of 0.2 to 0.5 µM. `Cn1cc(-c2cncc(NC3CC(O)c4c(NC(=O)c5ccc(C(F)(F)F)cc5)cccc43)c2)cn1` (stereo not shown) [Compound 71a, N-(3-hydroxy-1-((5-(1-methyl-1H-pyrazol-4-yl)pyridin-3-yl)amino)-2,3-dihydro-1H-inden-4-yl)-4-(trifluoromethyl)benzamide]: the IC50 is 0.05 to 0.2 µM. Turning to `Cc1ncc(-c2cnn(C)c2)cc1O[C@H]1CCc2c(NC(=O)c3ccc(C(F)(F)F)cc3)cccc21` [Compound 72, (S)—N-(1-((2-methyl-5-(1-methyl-1H-pyrazol-4-yl)pyridin-3-yl)oxy)-2,3-dihydro-1H-inden-4-yl)-4-(trifluoromethyl)benzamide], the IC50 was over 0.5 µM. On to `Cn1cc2ncc(N[C@H]3CCc4c(C(=O)Nc5cccc(C6CC6)c5)cccc43)cc2n1` [Compound 74a], for which the IC50 is under 0.05 µM.

As for `Cn1ncc2ccc(N[C@H]3CCc4c(C(=O)Nc5cccc(C6CC6)c5)cccc43)cc21` [Compound 74b], the IC50 was over 0.5 µM.

On to `Cn1cc2cc(N[C@H]3CCc4c(C(=O)Nc5cccc(C6CC6)c5)cccc43)cnc2n1` [Compound 74c], for which the IC50 lay within 0.05 to 0.2 µM. Turning to `Cn1cc2cc(N[C@H]3CCc4c(C(=O)Nc5cccc(C6CC6)c5)cccc43)ccc2n1` [Compound 74d], the IC50 was over 0.5 µM.

Take `Cn1ccc2ncc(N[C@H]3CCc4c(C(=O)Nc5cccc(C6CC6)c5)cccc43)cc21` [Compound 74e]: the IC50 is under 0.05 µM. Then `Cc1cc2ncc(N[C@H]3CCc4c(C(=O)Nc5cccc(C6CC6)c5)cccc43)cn2n1` [Compound 74f], with under 0.05 µM.

For the compound `O=C(Nc1cccc(C2CC2)c1)c1cccc2c1CC[C@@H]2Nc1cnc2ccnn2c1` [Compound 74g], the IC50 is under 0.05 µM. As for `Cc1cccc(NC(=O)c2cccc3c2CC[C@@H]3Nc2cnc3cn(C)nc3c2)c1F` [Compound 74i], the figure is under 0.05 µM; as for `Cc1cccc(NC(=O)c2cccc3c2CC[C@@H]3Oc2cnc3cnn(C)c3c2)c1F` [Compound 75, (S)—N-(2-fluoro-3-methylphenyl)-1-((1-methyl-1H-pyrazolo[4,3-b]pyridin-6-yl)oxy)-2,3-dihydro-1H-indene-4-carboxamide], under 0.05 µM. Then `CN(C)Cc1ccc(NC(=O)c2cccc3c2CC[C@@H]3Oc2cnc3cnn(C)c3c2)cc1` [Compound 76aa], with 0.05 to 0.2 µM. Then `Cn1ncc2ncc(O[C@H]3CCc4c(C(=O)Nc5cccc(C6CC6)c5)cccc43)cc21` [Compound 76ab], with under 0.05 µM; and `COc1cc(NC(=O)c2cccc3c2CC[C@@H]3Oc2cnc3cnn(C)c3c2)ccc1F` [Compound 76ad], with under 0.05 µM; and `Cn1ncc2ncc(O[C@H]3CCc4c(C(=O)Nc5ccc6c(c5)OC(F)(F)O6)cccc43)cc21` [Compound 76ae], with under 0.05 µM. Turning to `Cn1cc2ncc(O[C@H]3CCc4c(C(=O)Nc5cccc(C6CC6)c5)cccc43)cc2n1` [Compound 76af], the IC50 was under 0.05 µM.

Turning to `COc1ccc(F)c(NC(=O)c2cccc3c2CC[C@@H]3Oc2cnc3cnn(C)c3c2)c1` [Compound 76ag], the IC50 fell in the range of 0.05 to 0.2 µM. On to `Cc1ccc(F)c(NC(=O)c2cccc3c2CC[C@@H]3Oc2cnc3cnn(C)c3c2)c1` [Compound 76ah], for which the IC50 was under 0.05 µM. Then `Cc1cccc(NC(=O)c2cccc3c2CC[C@@H]3Oc2cnc3cn(C)nc3c2)c1F` [Compound 76aj], with under 0.05 µM. Regarding `COc1cccc(NC(=O)c2cccc3c2CC[C@@H]3Oc2cnc3cnn(C)c3c2)c1F` [Compound 76ak], the IC50 was in the range of 0.05 to 0.2 µM. Then `Cc1cc(NC(=O)c2cccc3c2CC[C@@H]3Oc2cnc3cnn(C)c3c2)ccc1F` [Compound 76am], with under 0.05 µM; and `Cn1ncc2ncc(O[C@H]3CCc4c(C(=O)Nc5ccc(F)c(Cl)c5)cccc43)cc21` [Compound 76an], with under 0.05 µM. For the compound `Cn1ncc2ncc(O[C@H]3CCc4c(C(=O)Nc5nn(C)c6ccccc56)cccc43)cc21` [Compound 76ao], the IC50 was under 0.05 µM. Then `CN(C)CCOc1cccc(NC(=O)c2cccc3c2CC[C@@H]3Oc2cnc3cnn(C)c3c2)c1` [Compound 76ap], with 0.05 to 0.2 µM; and `COc1cc(NC(=O)c2cccc3c2CC[C@@H]3Oc2cnc3cn(C)nc3c2)ccc1F` [Compound 76aq], with under 0.05 µM; and `Cc1cc(NC(=O)c2cccc3c2CC[C@@H]3Oc2cnc3cn(C)nc3c2)ccc1F` [Compound 76ar], with under 0.05 µM. Then `Cn1cc2ncc(O[C@H]3CCc4c(C(=O)Nc5ccc(F)c(Cl)c5)cccc43)cc2n1` [Compound 76as], with under 0.05 µM.

`Cn1ncc2ncc(O[C@H]3CCc4c(C(=O)Nc5cncc(C6CC6)c5)cccc43)cc21` [Compound 76at]: the IC50 is under 0.05 µM. As to `Cn1cc2ncc(O[C@H]3CCc4c(C(=O)Nc5ccccc5F)cccc43)cc2n1` [Compound 76au], the IC50 was under 0.05 µM. On to `Cn1cc2ncc(O[C@H]3CCc4c(C(=O)Nc5cccc(C(F)(F)F)c5F)cccc43)cc2n1` [Compound 76av], for which the IC50 is under 0.05 µM. Then `Cc1ccc(F)c(NC(=O)c2cccc3c2CC[C@@H]3Oc2cnc3cn(C)nc3c2)c1` [Compound 76ax], with under 0.05 µM; and `COc1ccc(F)c(NC(=O)c2cccc3c2CC[C@@H]3Oc2cnc3cn(C)nc3c2)c1` [Compound 76ay], with under 0.05 µM; and `COc1cccc(NC(=O)c2cccc3c2CC[C@@H]3Oc2cnc3cn(C)nc3c2)c1F` [Compound 76az], with under 0.05 µM. Then `Cc1cncc(NC(=O)c2cccc3c2CC[C@@H]3Oc2cnc3cn(C)nc3c2)c1` [Compound 76ba], with under 0.05 µM. On to `Cn1cc2ncc(O[C@H]3CCc4c(C(=O)Nc5cccc(C6CC6)c5F)cccc43)cc2n1` [Compound 76bb], for which the IC50 was under 0.05 µM. As to `Cn1ncc2ncc(O[C@H]3CCc4c(C(=O)Nc5cccc(C6CC6)c5F)cccc43)cc21` [Compound 76bc], the concentration for half-maximal inhibition (IC50) is under 0.05 µM.

`COc1c(Cl)cccc1NC(=O)c1cccc2c1CC[C@@H]2Oc1cnc2cn(C)nc2c1` [Compound 76be]: the IC50 is 0.05 to 0.2 µM.

With `Cn1ncc2ncc(O[C@H]3CCc4c(NC(=O)c5cccc(C6CC6)c5)cccc43)cc21` [Compound 77, (S)-3-cyclopropyl-N-(1-((1-methyl-1H-pyrazolo[4,3-b]pyridin-6-yl)oxy)-2,3-dihydro-1H-inden-4-yl)benzamide], the IC50 fell in the range of 0.05 to 0.2 µM.
